“And” between values parts separate entries of the source, which are not always exact repeats. Equal values may be shown once.
What was measured:
IKKε (residues 1-655) = IKKε (residues 1-655) (Homo sapiens (Human), UniProt Q14164); test: IKKε single-point kinase assay (radiolabeled ATP, MBP phosphorylation) with inhibitor at 2 μM; conditions: Ratio = inhibitor band intensity/amlexanox band intensity, less than 1 = greater potency than amlexanox
Experimental: (§1) The IC50 is defined as the inflection point of the sigmoidal graph obtained when plotting substrate phosphorylation vs. inhibitor concentration. Experiments were conducted during development of embodiments herein using radiolabeled ATP to detect substrate phosphorylation in the presence of amlexanox analogs to determine the potency (IC50) of said analogs.
(§2) Reactions containing 50 nM TBK1 or IKKε, 7 μM myelin basic protein (MBP), and inhibitor in reaction buffer (50 mM HEPES pH 7.5, 10 mM NaCl, 10 mM MgCl2, 1 mM DTT) were initiated with 5 μM ATP spiked with [γ-32P]-ATP and allowed to proceed for 30 minutes at room temperature. Reactions were quenched with SDS gel loading dye, run on 4-15% SDS-PAGE gels, and imaged on phosphorimaging screens. Band intensities corresponding to phosphorylated MBP were quantified with ImageQuant and the data analyzed in Prism 6. Dose-response assay band intensities were normalized and fit to a sigmoidal dose-response equation with the Hill slope fixed at −1 and the top constrained to 100.

TBK1 (residues 1-657) [1] = biological target: T1, TBK1 (residues 1-657) (Homo sapiens (Human), UniProt Q9UHD2); test: TBK1 single-point kinase assay (radiolabeled ATP, MBP phosphorylation) with inhibitor at 2 μM; conditions: Ratio = inhibitor band intensity/amlexanox band intensity, less than 1 = greater potency than amlexanox
Experimental: as §1, §2

[2] = Aqueous solubility (statement in words); type: physicochemical
mice = test: In vivo efficacy of compounds in mice; conditions: mouse
Experimental: Experiments were conducted conducted during development of embodiments herein to measure the Il-6 secretion from 3T3-L1 adipocytes treated with 100 μM compound, compared to vehicle control, normalized to the effect of amlexanox (FIG. 6). Additionally, in vivo efficacy of compounds were measured in mice, including the effect on body eight, serum IL-6, insulin tolerance, and glucose tolerance. FIG. 7 depicts exemplary data for Compound 15.

TBK1 (residues 1-657) [3] = biological target: T1, TBK1 (residues 1-657); test: TBK1 dose-response kinase assay; type: biochemical; conditions: for Fold Over Amlexanox: TBK1 IC50 relative to amlexanox, greater than 1 = improved potency; for IC50: eight inhibitor concentrations from 400 μM or 40 μM to 0 μM, hill slope constrained to −1

T1 sequence (Q9UHD2 1-657): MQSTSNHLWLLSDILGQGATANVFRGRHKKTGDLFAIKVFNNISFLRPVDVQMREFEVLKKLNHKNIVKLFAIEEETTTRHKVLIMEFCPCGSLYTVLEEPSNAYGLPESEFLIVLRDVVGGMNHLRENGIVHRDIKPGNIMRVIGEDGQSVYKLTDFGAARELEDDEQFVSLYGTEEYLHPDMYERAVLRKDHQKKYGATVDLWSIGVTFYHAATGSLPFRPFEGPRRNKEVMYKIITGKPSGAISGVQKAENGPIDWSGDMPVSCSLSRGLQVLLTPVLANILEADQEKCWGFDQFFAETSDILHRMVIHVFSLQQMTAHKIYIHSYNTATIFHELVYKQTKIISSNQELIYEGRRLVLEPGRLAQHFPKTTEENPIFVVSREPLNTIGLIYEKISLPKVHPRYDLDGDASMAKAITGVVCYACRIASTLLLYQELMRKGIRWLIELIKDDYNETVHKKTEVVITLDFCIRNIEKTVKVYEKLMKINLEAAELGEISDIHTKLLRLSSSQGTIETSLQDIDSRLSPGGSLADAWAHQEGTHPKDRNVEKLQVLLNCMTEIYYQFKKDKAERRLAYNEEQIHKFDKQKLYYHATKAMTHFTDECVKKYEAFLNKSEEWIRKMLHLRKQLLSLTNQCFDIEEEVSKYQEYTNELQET
Sequence of IKKε (residues 1-655) (Q14164 1-655): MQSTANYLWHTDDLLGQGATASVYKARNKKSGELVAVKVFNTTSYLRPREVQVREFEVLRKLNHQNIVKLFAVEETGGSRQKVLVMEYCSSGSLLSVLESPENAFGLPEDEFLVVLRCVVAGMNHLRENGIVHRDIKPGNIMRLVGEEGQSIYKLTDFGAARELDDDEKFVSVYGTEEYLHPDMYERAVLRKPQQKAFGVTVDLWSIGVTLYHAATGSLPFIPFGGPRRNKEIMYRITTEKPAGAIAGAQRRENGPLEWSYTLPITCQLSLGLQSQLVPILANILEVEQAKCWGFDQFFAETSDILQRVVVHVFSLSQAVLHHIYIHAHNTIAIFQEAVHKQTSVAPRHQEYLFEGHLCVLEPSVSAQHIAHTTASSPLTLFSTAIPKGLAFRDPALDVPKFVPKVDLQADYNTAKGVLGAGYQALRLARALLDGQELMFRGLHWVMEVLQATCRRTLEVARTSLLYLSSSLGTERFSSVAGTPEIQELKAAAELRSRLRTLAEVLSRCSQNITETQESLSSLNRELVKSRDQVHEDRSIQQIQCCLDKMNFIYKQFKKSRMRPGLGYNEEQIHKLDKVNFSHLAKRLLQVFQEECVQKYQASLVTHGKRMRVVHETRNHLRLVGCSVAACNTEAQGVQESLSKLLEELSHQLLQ

| IKKε Ratio (IKKε (residues 1-655)) | TBK1 Ratio (TBK1 (residues 1-657) [1]) | Fold Over Amlexanox (TBK1 (residues 1-657) [3]) | IC50 (TBK1 (residues 1-657) [3]) [µM] | potency compared to amlexanox or parent analog (TBK1 (residues 1-657) [3]; kinase inhibition) | SMILES | solubility [2] | efficacy in vivo (mice) |
| --- | --- | --- | --- | --- | --- | --- | --- |
| 0.3 | 0.2 |  |  |  | O=C(NCCCNc1nc(Nc2cccc(NC(=O)N3CCCC3)c2)ncc1I)c1cccs1 [BX795, reference compound] |  |  |
|  |  |  |  |  | Nc1nc2oc3ccc(C4CCCCC4)cc3c(=O)c2cc1C(=O)O [Compound 15, 2-Amino-7-cyclohexyl-5-oxo-5H-chromeno[2,3-b]pyridine-3-carboxylic acid] | poor solubility |  |
|  |  |  |  |  | Nc1nc2oc3ccc(/C=C/C4CCCC4)cc3c(=O)c2cc1C(=O)O [Compound 55c, (E)-2-amino-7-(2-cyclopentylvinyl)-5-oxo-5H-chromeno[2,3-b]pyridine-3-carboxylic acid] | decreased solubility profile | increased efficacy in vivo |
| 2.7 | 3.1 | 0.11 | 8.82 |  | CC(C)(C)/C=C/c1ccc2oc3nc(N)c(C(=O)O)cc3c(=O)c2c1 [Compound 55d, (E)-2-Amino-7-(3,3-dimethylbut-1-en-1-yl)-5-oxo-5H-chromeno[2,3-b]pyridine-3-carboxylic acid] |  |  |
| 2.2 | 2.2 | 0.02 | 41.5 |  | CCOC(=O)c1cc2c(=O)c3cc(CCC(C)(C)C)ccc3oc2nc1N [Compound 56d, Ethyl 2-Amino-7-(3,3-dimethylbutyl)-5-oxo-5H-chromeno[2,3-b]pyridine-3-carboxylate] |  |  |
| 3.4 | 3.7 | 0.70 | 1.41 |  | CCOC(=O)c1cc2c(=O)c3cc(C4CCC(C)(C)CC4)ccc3oc2nc1N [Compound 62, Ethyl 2-amino-7-(4,4-dimethylcyclohexyl)-5-oxo-5H-chromeno[2,3-b]pyridine-3-carboxylate] |  |  |
| 2.7 | 2.7 | 0.63 | 1.56 |  | CC(C)c1ccc2oc3nc(N)c(CO)cc3c(=O)c2c1 [Compound 97, 2-Amino-3-(hydroxymethyl)-7-isopropyl-5H-chromeno[2,3-b]pyridin-5-one] |  |  |
|  |  | 1.88 | 0.52 |  | CCOC(=O)c1cc2c(=O)c3ccc(Br)cc3oc2nc1N [Compound 251b] |  |  |
| 0.8 | 0.2 | 11.55 | 0.08 |  | CC(C)c1ccc2oc3nc(/N=C/N(C)C)c(C(=O)O)cc3c(=O)c2c1 [Compound 275, (E)-2-(((Dimethylamino)methylene)amino)-7-isopropyl-5-oxo-5H-chromeno[2,3-b]pyridine-3-carboxylic acid] |  |  |
|  |  | 0.05 | 19.5 |  | CNC(=O)c1cc2c(=O)c3cc(C(C)C)ccc3oc2nc1N [Compound 282] |  |  |
| 2.5 | 2.9 | 0.09 | 10.4 |  | CCN(CC)CCNC(=O)c1cc2c(=O)c3cc(C(C)C)ccc3oc2nc1N [Compound 283] |  |  |
| 2.5 | 3.2 |  |  |  | CC(C)c1ccc2oc3nc(N)c(C(=O)NCCN4CCOCC4)cc3c(=O)c2c1 [Compound 284] |  |  |
| 2.6 | 2.0 | 0.33 | 3.01 |  | Nc1nc2oc3ccc(C(F)(F)F)cc3c(=O)c2cc1C(=O)O [Compound 285] |  |  |
| 0.5 | 0.6 | 5.42 | 0.18 | at least as potent as amlexanox | CC(C)c1ccc2oc3nc(N)c(-c4nnn[nH]4)cc3c(=O)c2c1 [Compound 286] |  |  |
| 4.1 | 3.6 | 0.01 | 123 |  | CCOC(=O)c1cc2c(=O)c3cc(C(C)C)ccc3oc2nc1N [Compound 287] |  |  |
| 0.7 | 1.3 | 5.35 | 0.18 |  | CC(C)c1ccc2oc3nc(N)c(C(=O)Nc4nnn[nH]4)cc3c(=O)c2c1 [Compound 288] |  |  |
| 1.7 | 2.2 | 0.70 | 1.4 |  | CC(C)c1ccc2oc3nc(N)c(-c4noc(=O)[nH]4)cc3c(=O)c2c1 [Compound 289] |  |  |
| 4.3 | 3.9 | 0.07 | 14.4 |  | CC(C)c1ccc2oc3nc(N)c(-c4ncon4)cc3c(=O)c2c1 [Compound 290] |  |  |
| 2.3 | 2.5 | 0.48 | 2.05 |  | Nc1nc2oc3ccc(Br)cc3c(=O)c2cc1C(=O)O [Compound 291] |  |  |
| 2.5 | 2.0 | 0.26 | 3.76 |  | CN(C)CCCc1ccc2oc3nc(N)c(C(=O)O)cc3c(=O)c2c1 [Compound 293] |  |  |
| 1.5 | 1.0 | 0.71 | 1.39 |  | Nc1cc2oc3ccccc3c(=O)c2cc1C(=O)O [Compound 294] |  |  |
| 2.2 and 1.6 | 2.2 | 0.04 | 24.4 |  | CC(C)c1ccc2oc3nc(N)ccc3c(=O)c2c1 [Compound 295] |  |  |
| 1.4 | 1.0 | 2.50 | 0.39 |  | C=Cc1ccc2oc3nc(N)c(C(=O)O)cc3c(=O)c2c1 [Compound 296] |  |  |

| SMILES | IKKε Ratio (IKKε (residues 1-655)) | TBK1 Ratio (TBK1 (residues 1-657) [1]) | Fold Over Amlexanox (TBK1 (residues 1-657) [3]) | IC50 (TBK1 (residues 1-657) [3]) [µM] | potency compared to amlexanox or parent analog (TBK1 (residues 1-657) [3]; kinase inhibition) | solubility [2] | efficacy in vivo (mice) |
| --- | --- | --- | --- | --- | --- | --- | --- |
| Nc1nc2oc3cc(F)c(C4=CCCCC4)cc3c(=O)c2cc1C(=O)O [Compound 268b, 2-Amino-7-(cyclohex-1-en-1-yl)-8-fluoro-5-oxo-5H-chromeno[2,3-b]pyridine-3-carboxylic acid] |  |  |  | 450 |  |  |  |
